One compound from patent US6395749B1, “Carboxamide compounds, methods, and compositions for inhibiting PARP activity” (Guilford Pharmaceuticals Inc., priority 1998, dated 2002) can be followed below.

The assay relates to C57/BL male mice. In words: Septic shock assay (LPS plus galactosamine challenge). The assay is classed as in vivo, mouse. The following applies: 60, 20, 6 and 2 mg/kg daily IP for three days, first dose 30 minutes after challenge; dose of the result not stated. As to the method: Groups of 10 C57/BL male mice weighing 18 to 20 g were administered a test compound, 1-carboxynaphthalene-1-carboxamide at the doses of 60, 20, 6 and 2 mg/kg, daily, by intraperitoneal (IP) injection for three consecutive days. Each animal was first challenged with lipopolysaccharide (LPS, from E. Coli, LD100 of 20 mg/animal IV) plus galactosamine (20 mg/animal IV). The first dose of test compound in a suitable vehicle was given 30 minutes after challenge, and the second and third doses were given 24 hours later on day 2 and day 3 respectively, with only the surviving animals receiving the second or third dose of the test compound. Mortality was recorded every 12 hours after challenge for the three-day testing period. 1-Carboxy-naphthalene-1-carboxamide provided a protection against mortality from septic shock of about 40%.

For `NC(=O)c1cccc2cccc(C(=O)O)c12` [1-Carboxy-naphthalene-1-carboxamide, 8-carboxynaphthalene-1-carboxamide], the “protection against mortality from septic shock” value is listed as “about 40%”.
